Measured values reported in patent US11427567B2, “Imidazolyl pyrimidinylamine compounds as CDK2 inhibitors” (Incyte Corporation, priority 2019, dated 2022).

molecular target: CDK2/Cyclin E1 (Homo sapiens (Human), UniProt P24941); assay: CDK2/Cyclin E1 HTRF enzyme activity assay (Example A); format: biochemical; settings: 1 mM ATP
Method: Assays were conducted in white 384-well polystyrene plates in a final reaction volume of 8 μL. […] HTRF signals were read after 1 hour at room temperature on a PHERAstar FS plate reader (BMG Labtech). Data was analyzed with IDBS XLFit and GraphPad Prism 5.0 software using a three or four parameter dose response curve to determine IC50 for each compound.

| IC50 [nM] | Structure (SMILES) |
| --- | --- |
| ≤ 50 | CS(=O)(=O)N1CCC(Nc2ncc(C(F)(F)F)c(-c3cn(-c4ccc(CN5CC6(CC(O)C6)C5)cc4Cl)cn3)n2)CC1 [Example 202, 2-(3-Chloro-4-(4-(2-((1-(methylsulfonyl)-piperidin-4-yl)amino)-5-(trifluoromethyl)-pyrimidin-4-yl)-1H-imidazol-1-yl)benzyl)-2-azaspiro[3.3]heptan-6-ol] |
| ≤ 50 | C[C@H]1CN(c2ccc(-n3cnc(-c4nc(NC5CCN(S(C)(=O)=O)CC5)ncc4C(F)(F)F)c3)c(Cl)c2)CCN1 [Example 140, (S)-4-(1-(2-Chloro-4-(3-methyl-piperazin-1-yl)-phenyl)-1H-imidazol-4-yl)-N-(1-(methyl-sulfonyl)piperidin-4-yl)-5-(trifluoro-methyl)pyrimidin-2-amine] |
| ≤ 50 | CNCc1ccc(-n2cc(-c3nc(N[C@H]4CCN(S(C)(=O)=O)C[C@H]4F)ncc3C(F)(F)F)nc2C)c(F)c1 [Example 287, N-((3R,4S)-3-Fluoro-1-(methylsulfonyl)piperidin-4-yl)-4-(1-(2-fluoro-4-((methylamino)methyl)phenyl)-2-methyl-1H-imidazol-4-yl)-5-(trifluoromethyl)pyrimidin-2-amine] |
| ≤ 50 | Cc1nc(-c2nc(NC3CCN(S(C)(=O)=O)CC3)ncc2C(F)(F)F)cn1-c1ccc(CN2CC(C)(O)C2)cc1F [Example 354, 1-(3-Fluoro-4-(2-methyl-4-(2-((1-(methylsulfonyl)piperidin-4-yl)amino)-5-(trifluoromethyl)pyrimidin-4-yl)-1H-imidazol-1-yl)benzyl)-3-methylazetidin-3-ol] |
| ≤ 50 | CS(=O)(=O)N1CC[C@H](Nc2ncc(C(F)(F)F)c(-c3cn(-c4ccnc(C#N)c4Cl)cn3)n2)[C@H](F)C1 [Example 308, 3-Chloro-4-(4-(2-(((3R,4S)-3-fluoro-1-(methylsulfonyl)piperidin-4-yl)amino)-5-(trifluoromethyl)pyrimidin-4-yl)-1H-imidazol-1-yl)picolinonitrile] |
| ≤ 50 | CNCc1ccc(-n2cnc(-c3nc(N[C@H]4CCN(S(=O)(=O)C5CC5)C[C@H]4C)ncc3C(F)(F)F)c2)c(Cl)c1 [Example 223, 4-(1-(2-Chloro-4-((methylamino)-methyl)phenyl)-1H-imidazol-4-yl)-N-((3R,4S)-1-(cyclo-propylsulfonyl)-3-methylpiperidin-4-yl)-5-(trifluoro-methyl)pyrimidin-2-amine] |
| ≤ 50 | Cc1nc(-c2nc(N[C@H]3CCN(S(C)(=O)=O)C[C@H]3F)ncc2C(F)(F)F)cn1-c1ccc(CNC2CC2)cc1F [Example 408] |
| ≤ 50 | CCN1CCN(Cc2ccc(-n3cc(-c4nc(N[C@H]5CCN(S(C)(=O)=O)C[C@H]5F)ncc4C(F)(F)F)nc3C)c(F)c2)CC1 [Example 445, 4-(1-(4-((4-Ethylpiperazin-1-yl)methyl)-2-fluorophenyl)-2-methyl-1H-imidazol-4-yl)-N-((3R,4S)-3-fluoro-1-(methylsulfonyl)piperidin-4-yl)-5-(trifluoromethyl)pyrimidin-2-amine] |
| ≤ 50 | Cc1nc(-c2nc(N[C@H]3CCN(S(C)(=O)=O)C[C@H]3F)ncc2C(F)(F)F)cn1-c1cccc(C#N)c1F [Example 305, 2-Fluoro-3-(4-(2-(((3R,4S)-3-fluoro-1-(methylsulfonyl)piperidin-4-yl)amino)-5-(trifluoromethyl)pyrimidin-4-yl)-2-methyl-1H-imidazol-1-yl)benzonitrile] |
| ≤ 50 | C[C@@]1(O)CCN(Cc2ccc(-n3cnc(-c4nc(N[C@@H]5CCN(S(C)(=O)=O)C[C@H]5F)ncc4C(F)(F)F)c3)c(Cl)c2)C1 [Example 397, (R)-1-(3-Chloro-4-(4-(2-(((3R,4R)-3-fluoro-1-(methylsulfonyl)piperidin-4-yl)amino)-5-(trifluoromethyl)pyrimidin-4-yl)-1H-imidazol-1-yl)benzyl)-3-methylpyrrolidin-3-ol] |
| ≤ 50 | CC(C)(O)Cn1cnc(-c2nc(N[C@@H]3CCN(S(C)(=O)=O)C[C@H]3F)ncc2C(F)(F)F)c1 [Example 326, 1-(4-(2-(((3R,4R)-3-Fluoro-1-(methylsulfonyl)piperidin-4-yl)amino)-5-(trifluoromethyl)pyrimidin-4-yl)-1H-imidazol-1-yl)-2-methylpropan-2-ol] |
| ≤ 50 | CCN1CCN(c2nccc(-n3cnc(-c4nc(NC5CCN(S(C)(=O)=O)CC5)ncc4C(F)(F)F)c3)c2Cl)CC1 [Example 318, 4-(1-(3-Chloro-2-(4-ethylpiperazin-1-yl)pyridin-4-yl)-1H-imidazol-4-yl)-N-(1-(methylsulfonyl)piperidin-4-yl)-5-(trifluoromethyl)pyrimidin-2-amine] |
| ≤ 50 | CNCCc1cccc(-n2cnc(-c3nc(NC4CCN(S(C)(=O)=O)CC4)ncc3C(F)(F)F)c2)c1Cl [Example 467, 4-(1-(2-Chloro-3-(2-(methylamino)ethyl)phenyl)-1H-imidazol-4-yl)-N-(1-(methylsulfonyl)piperidin-4-yl)-5-(trifluoromethyl)pyrimidin-2-amine] |
| ≤ 50 | CN1CCC(c2ccc(-n3cnc(-c4nc(NC5CCN(S(C)(=O)=O)CC5)ncc4C(F)(F)F)c3)c(Cl)c2)CC1 [Example 439, 4-(1-(2-Chloro-4-(1-methylpiperidin-4-yl)phenyl)-1H-imidazol-4-yl)-N-(1-(methylsulfonyl)piperidin-4-yl)-5-(trifluoromethyl)pyrimidin-2-amine] |
| ≤ 50 | C[C@@]1(O)CCN(Cc2cc(F)c(-n3cnc(-c4nc(N[C@@H]5CCN(S(C)(=O)=O)C[C@H]5F)ncc4C(F)(F)F)c3)c(Cl)c2)C1 [Example 402, (R)-1-(3-Chloro-5-fluoro-4-(4-(2-(((3R,4R)-3-fluoro-1-(methylsulfonyl)piperidin-4-yl)amino)-5-(trifluoromethyl)pyrimidin-4-yl)-1H-imidazol-1-yl)benzyl)-3-methylpyrrolidin-3-ol] |

Second part, the compound before the results:

| Structure (SMILES) | IC50 [nM] |
| --- | --- |
| [2H]C([2H])([2H])NC(=O)c1ccc(-n2cnc(-c3nc(NC4CCN(S(C)(=O)=O)CC4)ncc3C(F)(F)F)c2)c(C)n1 [Example 131, 6-Methyl-N-(methyl-d)-5-(4-(2-((1-(methylsulfonyl)piperidin-4-yl)amino)-5-(trifluoromethyl)pyrimidin-4-yl)-1H-imidazol-1-yl)picolinamide] | ≤ 50 |
| CS(=O)(=O)N1CCC(Nc2ncc(C(F)(F)F)c(-c3cn(-c4cnccc4C(F)(F)F)cn3)n2)CC1 [Example 66, N-(1-(Methylsulfonyl)piperidin-4-yl)-5-(trifluoromethyl)-4-(1-(4-(trifluoromethyl)pyridin-3-yl)-1H-imidazol-4-yl)pyrimidin-2-amine] | ≤ 50 |
| CN(C)CCOc1ccc(-n2cnc(-c3nc(NC4CCN(S(C)(=O)=O)CC4)ncc3C(F)(F)F)c2)c(C(F)(F)F)n1 [Example 72, 4-(1-(6-(2-(Dimethylamino)ethoxy)-2-(trifluoromethyl)pyridin-3-yl)-1H-imidazol-4-yl)-N-(1-(methylsulfonyl)piperidin-4-yl)-5-(trifluoromethyl)pyrimidin-2-amine] | ≤ 50 |
| Cc1cc(C#N)ccc1-n1cnc(-c2nc(NC3CCN(S(C)(=O)=O)CC3)ncc2C(F)(F)F)c1 [Example 35, 3-Methyl-4-(4-(2-((1-(methylsulfonyl)piperidin-4-yl)amino)-5-(trifluoromethyl)pyrimidin-4-yl)-1H-imidazol-1-yl)benzonitrile] | ≤ 50 |
| CC(CN(C)C)Oc1ccc(-n2cnc(-c3nc(NC4CCN(S(C)(=O)=O)CC4)ncc3C(F)(F)F)c2)c(C(F)(F)F)n1 (centres unmarked) [Example 73, 4-(1-(6-((1-(Dimethylamino)propan-2-yl)oxy)-2-(trifluoromethyl)pyridin-3-yl)-1H-imidazol-4-yl)-N-(1-(methylsulfonyl)piperidin-4-yl)-5-(trifluoromethyl)pyrimidin-2-amine] | ≤ 50 |
| Cc1nc(-c2nc(NC3CCN(S(C)(=O)=O)CC3)ncc2C(F)(F)F)cn1-c1ccc(N2CCN(C)CC2)cc1F [Example 103, 4-(1-(2-Fluoro-4-(4-methylpiperazin-1-yl)phenyl)-2-methyl-1H-imidazol-4-yl)-N-(1-(methylsulfonyl)piperidin-4-yl)-5-(trifluoromethyl)pyrimidin-2-amine] | ≤ 50 |
| CS(=O)(=O)N1CC[C@H](Nc2ncc(C(F)(F)F)c(-c3cn(-c4cccnc4C#N)cn3)n2)[C@H](F)C1 [Example 47, 3-(4-(2-(((3R,4S)-3-Fluoro-1-(methylsulfonyl)piperidin-4-yl)amino)-5-(trifluoromethyl)pyrimidin-4-yl)-1H-imidazol-1-yl)picolinonitrile] | ≤ 50 |
| COc1ccc(-n2cnc(-c3nc(NC4CCN(S(C)(=O)=O)CC4)ncc3C(F)(F)F)c2)c(C(F)(F)F)n1 [Example 70, 4-(1-(6-Methoxy-2-(trifluoromethyl)pyridin-3-yl)-1H-imidazol-4-yl)-N-(1-(methylsulfonyl)piperidin-4-yl)-5-(trifluoromethyl)pyrimidin-2-amine] | ≤ 50 |
| Cc1nc(-c2nc(NC3CCN(S(C)(=O)=O)CC3)ncc2C(F)(F)F)cn1-c1ccc(N2CC[C@@H](N(C)C)C2)cc1F [Example 109, (R)-4-(1-(4-(3-(Dimethylamino)-pyrrolidin-1-yl)-2-fluorophenyl)-2-methyl-1H-imidazol-4-yl)-N-(1-(methyl-sulfonyl)piperidin-4-yl)-5-(trifluoro-methyl)pyrimidin-2-amine] | ≤ 50 |
| N#Cc1cccc(-n2cnc(-c3nc(NC4CCN(S(=O)(=O)C5CC5)CC4)ncc3C(F)(F)F)c2)c1C(F)(F)F [Example 92, 3-(4-(2-((1-(Cyclopropylsulfonyl)piperidin-4-yl)amino)-5-(trifluoromethyl)pyrimidin-4-yl)-1H-imidazol-1-yl)-2-(trifluoromethyl) benzonitrile] | ≤ 50 |
| Cc1nc(-c2nc(NC3CCN(S(C)(=O)=O)CC3)ncc2C(F)(F)F)cn1-c1ccc(-c2cnnn2C)cc1F [Example 128, 4-(1-(2-Fluoro-4-(1-methyl-1H-1,2,3-triazol-5-yl)phenyl)-2-methyl-1H-imidazol-4-yl)-N-(1-(methylsulfonyl)piperidin-4-yl)-5-(trifluoromethyl)pyrimidin-2-amine] | ≤ 50 |
